# Experimental data reported in patent publication US20060148730A1, “Method of treating tuberculosis” (priority 2003, published 2006).
# Tested on: M. tuberculosis H37Rv
# Assay: MIC vs. M. tuberculosis H37Rv, microplate Alamar Blue assay (MABA)
# Type: cell-based
# Settings: Mycobacterium tuberculosis, H37RV, Table 5; read-out: MIC
row,SMILES,MIC [µM]
1,CC[C@H]1OC(=O)[C@H](C)[C@@H](O)[C@H](C)[C@@H](OC2OC(C)CC(N(C)C)C2OC(=O)Nc2ccccc2)[C@](C)(OC)C/C(C)=C2/O[C@@]1(C)C=C2C (some centres unmarked) [Compound 1GYG9],16

# Same assay, conditions: Table 3; parallel-synthesis carbazate library products, SPE purified; read-out: MIC
row,SMILES,MIC [µM]
1,CC[C@H]1OC(=O)[C@H](C)[C@@H](O[C@H]2CC(C)(OC)[C@@H](O)[C@H](C)O2)[C@H](C)[C@@H](O[C@@H]2O[C@H](C)C[C@H](N(C)C)[C@H]2O)[C@](C)(OC)C[C@@H](C)C(=O)[C@H](C)[C@H]2N(NCc3cccn3CCC#N)C(=O)O[C@]12C (some centres unmarked) [E10′],20
2,CC[C@H]1OC(=O)[C@H](C)[C@@H](O[C@H]2CC(C)(OC)[C@@H](O)[C@H](C)O2)[C@H](C)[C@@H](O[C@@H]2O[C@H](C)C[C@H](N(C)C)[C@H]2O)[C@](C)(OC)C[C@@H](C)C(=O)[C@H](C)[C@H]2N(NCc3nc4ccccc4s3)C(=O)O[C@]12C (some centres unmarked) [F7′],16
3,CC[C@H]1OC(=O)[C@H](C)[C@@H](O[C@H]2CC(C)(OC)[C@@H](O)[C@H](C)O2)[C@H](C)[C@@H](O[C@@H]2O[C@H](C)C[C@H](N(C)C)[C@H]2O)[C@](C)(OC)C[C@@H](C)C(=O)[C@H](C)[C@H]2N(NCc3c(Cl)cccc3Cl)C(=O)O[C@]12C (some centres unmarked) [H1′],11
4,CC[C@H]1OC(=O)[C@H](C)[C@@H](O[C@H]2CC(C)(OC)[C@@H](O)[C@H](C)O2)[C@H](C)[C@@H](O[C@@H]2O[C@H](C)C[C@H](N(C)C)[C@H]2O)[C@](C)(OC)C[C@@H](C)C(=O)[C@H](C)[C@H]2N(NCc3cn(S(=O)(=O)c4ccc(C)cc4)c4ccccc34)C(=O)O[C@]12C (some centres unmarked) [C4′],11
5,CC[C@H]1OC(=O)[C@H](C)[C@@H](O[C@H]2CC(C)(OC)[C@@H](O)[C@H](C)O2)[C@H](C)[C@@H](O[C@@H]2O[C@H](C)C[C@H](N(C)C)[C@H]2O)[C@](C)(OC)C[C@@H](C)C(=O)[C@H](C)[C@H]2N(NCc3cc4ccccc4s3)C(=O)O[C@]12C (some centres unmarked) [G2′],11
6,CC[C@H]1OC(=O)[C@H](C)[C@@H](O[C@H]2CC(C)(OC)[C@@H](O)[C@H](C)O2)[C@H](C)[C@@H](O[C@@H]2O[C@H](C)C[C@H](N(C)C)[C@H]2O)[C@](C)(OC)C[C@@H](C)C(=O)[C@H](C)[C@H]2N(NCc3cnccc3NC(=O)C(C)(C)C)C(=O)O[C@]12C (some centres unmarked) [E2′],>27
7,CC[C@H]1OC(=O)[C@H](C)[C@@H](O[C@H]2CC(C)(OC)[C@@H](O)[C@H](C)O2)[C@H](C)[C@@H](O[C@@H]2O[C@H](C)C[C@H](N(C)C)[C@H]2O)[C@](C)(OC)C[C@@H](C)C(=O)[C@H](C)[C@H]2N(/N=C/c3c(C)noc3-c3ccccc3)C(=O)O[C@]12C (some centres unmarked) [C12′],9
8,CC[C@H]1OC(=O)[C@H](C)[C@@H](O[C@H]2CC(C)(OC)[C@@H](O)[C@H](C)O2)[C@H](C)[C@@H](O[C@@H]2O[C@H](C)C[C@H](N(C)C)[C@H]2O)[C@](C)(OC)C[C@@H](C)C(=O)[C@H](C)[C@H]2N(/N=C/c3cnc(-c4ccccc4)nc3C)C(=O)O[C@]12C (some centres unmarked) [E6′],5

# Same assay, conditions: Table 4; read-out: MIC
row,SMILES,MIC [µM]
1,CCC1OC(=O)C(C)C(OC2CC(C)(OC)C(O)C(C)O2)C(C)C(OC2OC(C)CC(N(C)C)C2O)C(C)(OC)CC(C)C(=NOCCCCF)C(C)C(O)C1(C)O (centres unmarked) [Compound 1DP79],3.5

# Same assay, conditions: Table 5; read-out: MIC
row,SMILES,MIC [µM]
1,CCCCCCNC(=O)OC1C(OC2C(C)C(OC3CC(C)(OC)C(O)C(C)O3)C(C)C(=O)OC(CC)C(C)(O)C(O)C(C)C(=O)C(C)CC2(C)OC)OC(C)CC1N(C)C (centres unmarked) [Compound 1SH88],15
2,CCC1OC(=O)C(C)C(OC2CC(C)(OC)C(O)C(C)O2)C(C)C(OC2OC(C)CC(N(C)C)C2O)C(C)(O)CC(C)C(=NN=Cc2cccc(C(F)(F)F)c2)C(C)C(O)C1(C)O (centres unmarked) [Compound 1OK119],16
3,CC[C@H]1OC(=O)[C@H](C)[C@@H](O)[C@H](C)[C@@H](O[C@@H]2O[C@H](C)C[C@H](N(C)C)[C@H]2O)[C@](C)(OC)C[C@@H](C)C(=NOCCc2ccccc2)[C@H](C)[C@@H](O)[C@]1(C)O [Compound 2GY7],16
4,CCC1OC(=O)C(C)C(OC2CC(C)(OC)C(O)C(C)O2)C(C)C(OC2OC(C)CC(N(C)C)C2O)C(C)(O)CC(C)C(=NNC2CCCCC2)C(C)C(O)C1(C)O (centres unmarked) [Compound 1OK107],3.9
